US12157741B2, “Macrocyclic inhibitors of DYRK1A” (DANA-FARBER CANCER INSTITUTE, INC., priority 2018, dated 2024)
Where two headings read alike, the source gives them in different places.

Columns and labels:
Format in all cases: binding
[1] = target: various enzymes (Homo sapiens, UniProt Q8TDX7); conditions: compound 1 uM
Description: (§1) Ambit profiling was conducted in accordance with the manufacturer's instructions.

[2] = target: various enzymes (Homo sapiens, UniProt Q8IU85); conditions: compound 1 uM
Description: as §1

[3] = target: T1, various enzymes (Homo sapiens, UniProt Q08881); conditions: compound 1 uM
T1 sequence (Q08881 1-620): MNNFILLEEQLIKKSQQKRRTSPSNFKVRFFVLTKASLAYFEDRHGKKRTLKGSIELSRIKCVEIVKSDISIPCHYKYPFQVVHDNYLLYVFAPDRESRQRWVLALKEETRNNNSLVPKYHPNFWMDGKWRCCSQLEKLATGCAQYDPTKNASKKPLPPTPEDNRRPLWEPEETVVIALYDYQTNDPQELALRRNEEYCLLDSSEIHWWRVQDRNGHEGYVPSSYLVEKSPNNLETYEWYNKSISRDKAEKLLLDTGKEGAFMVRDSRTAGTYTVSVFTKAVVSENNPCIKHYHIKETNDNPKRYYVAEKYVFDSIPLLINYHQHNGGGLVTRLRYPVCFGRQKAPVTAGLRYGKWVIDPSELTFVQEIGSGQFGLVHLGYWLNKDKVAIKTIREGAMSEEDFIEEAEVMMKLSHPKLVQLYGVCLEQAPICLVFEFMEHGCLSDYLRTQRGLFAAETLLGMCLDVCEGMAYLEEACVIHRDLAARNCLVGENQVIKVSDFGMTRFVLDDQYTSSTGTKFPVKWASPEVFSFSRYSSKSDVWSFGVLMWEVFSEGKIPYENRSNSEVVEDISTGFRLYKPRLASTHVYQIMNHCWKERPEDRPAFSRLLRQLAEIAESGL
Description: as §1

[4] = target: various enzymes (Homo sapiens, UniProt P49336); conditions: compound 1 uM
various enzymes (Homo sapiens, UniProt P49336), sequence (P49336 whole entry): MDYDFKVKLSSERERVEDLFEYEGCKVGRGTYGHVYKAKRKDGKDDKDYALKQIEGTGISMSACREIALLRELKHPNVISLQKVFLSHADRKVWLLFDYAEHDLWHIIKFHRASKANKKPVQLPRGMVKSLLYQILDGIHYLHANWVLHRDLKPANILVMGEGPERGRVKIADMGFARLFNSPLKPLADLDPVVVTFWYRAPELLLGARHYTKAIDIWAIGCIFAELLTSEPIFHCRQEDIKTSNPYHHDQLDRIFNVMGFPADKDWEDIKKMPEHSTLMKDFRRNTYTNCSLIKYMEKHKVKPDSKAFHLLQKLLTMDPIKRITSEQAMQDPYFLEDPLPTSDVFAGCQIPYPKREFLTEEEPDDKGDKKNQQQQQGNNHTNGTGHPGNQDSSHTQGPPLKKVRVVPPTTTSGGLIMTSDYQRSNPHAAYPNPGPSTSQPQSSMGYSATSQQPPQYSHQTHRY
Description: as §1

[5] = target: various enzymes (Homo sapiens, UniProt P54646); conditions: compound 1 uM
Description: as §1

[6] = target: various enzymes (Homo sapiens, UniProt P06239); conditions: compound 1 uM
various enzymes (Homo sapiens, UniProt P06239), sequence (P06239 whole entry): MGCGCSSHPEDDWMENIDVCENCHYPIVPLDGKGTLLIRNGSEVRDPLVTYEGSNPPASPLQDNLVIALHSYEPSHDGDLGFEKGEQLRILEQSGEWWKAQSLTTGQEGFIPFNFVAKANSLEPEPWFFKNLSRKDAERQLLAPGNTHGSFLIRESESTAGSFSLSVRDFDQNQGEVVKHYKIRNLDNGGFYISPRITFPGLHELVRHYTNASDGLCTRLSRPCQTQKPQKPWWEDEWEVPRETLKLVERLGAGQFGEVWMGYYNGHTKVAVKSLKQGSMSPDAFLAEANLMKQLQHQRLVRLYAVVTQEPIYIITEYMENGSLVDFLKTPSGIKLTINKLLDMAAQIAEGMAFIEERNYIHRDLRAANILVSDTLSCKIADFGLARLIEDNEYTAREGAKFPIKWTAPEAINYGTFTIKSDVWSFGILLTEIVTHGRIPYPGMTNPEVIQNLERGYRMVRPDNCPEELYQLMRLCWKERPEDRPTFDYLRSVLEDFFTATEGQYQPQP
Description: as §1

[7] = target: various enzymes (Homo sapiens, UniProt O95747); conditions: compound 1 uM
Description: as §1

[8] = target: various enzymes (Homo sapiens, UniProt Q9UQB9); conditions: compound 1 uM
various enzymes (Homo sapiens, UniProt Q9UQB9), sequence (Q9UQB9 whole entry): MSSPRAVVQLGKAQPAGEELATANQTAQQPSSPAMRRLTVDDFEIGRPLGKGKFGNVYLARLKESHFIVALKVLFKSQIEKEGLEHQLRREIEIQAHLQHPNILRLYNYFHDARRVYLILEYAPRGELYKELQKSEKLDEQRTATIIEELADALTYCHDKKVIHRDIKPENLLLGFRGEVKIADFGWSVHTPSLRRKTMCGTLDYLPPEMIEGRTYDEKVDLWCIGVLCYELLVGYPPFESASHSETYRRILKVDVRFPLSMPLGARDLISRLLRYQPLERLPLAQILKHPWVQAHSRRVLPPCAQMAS
Description: as §1

[9] = target: various enzymes (Homo sapiens, UniProt Q9P1W9); conditions: compound 1 uM
Description: as §1

[10] = target: T2, various enzymes (Homo sapiens, UniProt Q8IVH8); conditions: compound 1 uM
T2 sequence (Q8IVH8 1-894): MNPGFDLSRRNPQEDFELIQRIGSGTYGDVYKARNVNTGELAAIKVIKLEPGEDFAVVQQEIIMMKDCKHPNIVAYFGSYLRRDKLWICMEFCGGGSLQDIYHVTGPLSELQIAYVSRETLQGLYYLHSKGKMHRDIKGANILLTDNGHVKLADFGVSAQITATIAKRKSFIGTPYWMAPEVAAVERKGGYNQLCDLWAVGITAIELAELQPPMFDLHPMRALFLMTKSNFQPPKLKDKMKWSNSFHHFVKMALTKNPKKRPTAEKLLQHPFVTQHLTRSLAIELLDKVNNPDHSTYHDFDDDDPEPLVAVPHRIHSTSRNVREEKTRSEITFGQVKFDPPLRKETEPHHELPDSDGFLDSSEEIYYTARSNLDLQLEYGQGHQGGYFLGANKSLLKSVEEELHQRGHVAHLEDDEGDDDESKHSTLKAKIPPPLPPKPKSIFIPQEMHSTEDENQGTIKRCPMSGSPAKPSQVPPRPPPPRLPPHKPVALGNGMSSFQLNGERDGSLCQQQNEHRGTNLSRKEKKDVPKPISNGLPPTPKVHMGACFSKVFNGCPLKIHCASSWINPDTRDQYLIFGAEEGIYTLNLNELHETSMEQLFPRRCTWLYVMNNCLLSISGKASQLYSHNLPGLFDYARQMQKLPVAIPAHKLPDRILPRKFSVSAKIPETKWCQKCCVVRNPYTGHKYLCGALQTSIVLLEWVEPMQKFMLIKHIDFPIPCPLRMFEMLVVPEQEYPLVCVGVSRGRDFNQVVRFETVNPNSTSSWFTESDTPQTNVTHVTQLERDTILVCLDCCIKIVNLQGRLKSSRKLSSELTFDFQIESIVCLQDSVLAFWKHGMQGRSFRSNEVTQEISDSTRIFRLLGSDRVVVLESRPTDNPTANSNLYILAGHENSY
Description: as §1

[11] = target: various enzymes (Homo sapiens, UniProt O95382); conditions: compound 1 uM
various enzymes (Homo sapiens, UniProt O95382), sequence (O95382 whole entry): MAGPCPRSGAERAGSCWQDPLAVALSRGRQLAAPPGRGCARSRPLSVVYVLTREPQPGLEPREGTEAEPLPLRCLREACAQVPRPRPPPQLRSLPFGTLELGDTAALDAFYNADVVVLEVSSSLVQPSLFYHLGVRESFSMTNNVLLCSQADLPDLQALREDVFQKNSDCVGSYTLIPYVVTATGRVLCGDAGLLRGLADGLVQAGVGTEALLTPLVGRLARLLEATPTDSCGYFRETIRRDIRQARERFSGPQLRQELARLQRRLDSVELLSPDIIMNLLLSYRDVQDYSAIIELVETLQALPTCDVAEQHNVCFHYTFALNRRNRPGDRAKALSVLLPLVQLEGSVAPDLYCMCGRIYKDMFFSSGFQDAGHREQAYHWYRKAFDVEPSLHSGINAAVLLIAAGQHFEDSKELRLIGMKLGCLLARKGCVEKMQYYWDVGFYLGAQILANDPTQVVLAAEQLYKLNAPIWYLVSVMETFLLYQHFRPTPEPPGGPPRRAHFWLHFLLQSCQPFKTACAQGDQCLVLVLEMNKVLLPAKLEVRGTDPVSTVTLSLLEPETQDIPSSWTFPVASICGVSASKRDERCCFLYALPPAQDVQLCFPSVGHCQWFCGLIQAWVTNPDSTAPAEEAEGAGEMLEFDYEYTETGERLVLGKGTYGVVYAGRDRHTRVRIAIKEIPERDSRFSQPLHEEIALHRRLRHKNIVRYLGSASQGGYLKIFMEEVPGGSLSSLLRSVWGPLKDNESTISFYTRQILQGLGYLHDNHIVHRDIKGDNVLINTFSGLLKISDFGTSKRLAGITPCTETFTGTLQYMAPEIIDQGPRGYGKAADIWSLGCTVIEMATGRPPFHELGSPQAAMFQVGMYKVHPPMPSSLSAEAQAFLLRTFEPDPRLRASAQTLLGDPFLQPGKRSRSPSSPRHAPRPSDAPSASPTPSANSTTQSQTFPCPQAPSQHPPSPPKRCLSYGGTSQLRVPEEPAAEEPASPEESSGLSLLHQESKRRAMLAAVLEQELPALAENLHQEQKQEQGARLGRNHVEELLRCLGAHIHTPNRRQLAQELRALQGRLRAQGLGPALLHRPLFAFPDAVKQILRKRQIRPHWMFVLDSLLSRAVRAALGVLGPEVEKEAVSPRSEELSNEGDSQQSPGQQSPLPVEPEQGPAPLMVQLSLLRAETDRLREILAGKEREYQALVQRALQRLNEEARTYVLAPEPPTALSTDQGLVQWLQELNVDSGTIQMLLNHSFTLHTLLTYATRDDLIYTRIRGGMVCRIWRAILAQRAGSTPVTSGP
Description: as §1

[12] = target: various enzymes (Homo sapiens, UniProt P33981); conditions: compound 1 uM
various enzymes (Homo sapiens, UniProt P33981), sequence (P33981 whole entry): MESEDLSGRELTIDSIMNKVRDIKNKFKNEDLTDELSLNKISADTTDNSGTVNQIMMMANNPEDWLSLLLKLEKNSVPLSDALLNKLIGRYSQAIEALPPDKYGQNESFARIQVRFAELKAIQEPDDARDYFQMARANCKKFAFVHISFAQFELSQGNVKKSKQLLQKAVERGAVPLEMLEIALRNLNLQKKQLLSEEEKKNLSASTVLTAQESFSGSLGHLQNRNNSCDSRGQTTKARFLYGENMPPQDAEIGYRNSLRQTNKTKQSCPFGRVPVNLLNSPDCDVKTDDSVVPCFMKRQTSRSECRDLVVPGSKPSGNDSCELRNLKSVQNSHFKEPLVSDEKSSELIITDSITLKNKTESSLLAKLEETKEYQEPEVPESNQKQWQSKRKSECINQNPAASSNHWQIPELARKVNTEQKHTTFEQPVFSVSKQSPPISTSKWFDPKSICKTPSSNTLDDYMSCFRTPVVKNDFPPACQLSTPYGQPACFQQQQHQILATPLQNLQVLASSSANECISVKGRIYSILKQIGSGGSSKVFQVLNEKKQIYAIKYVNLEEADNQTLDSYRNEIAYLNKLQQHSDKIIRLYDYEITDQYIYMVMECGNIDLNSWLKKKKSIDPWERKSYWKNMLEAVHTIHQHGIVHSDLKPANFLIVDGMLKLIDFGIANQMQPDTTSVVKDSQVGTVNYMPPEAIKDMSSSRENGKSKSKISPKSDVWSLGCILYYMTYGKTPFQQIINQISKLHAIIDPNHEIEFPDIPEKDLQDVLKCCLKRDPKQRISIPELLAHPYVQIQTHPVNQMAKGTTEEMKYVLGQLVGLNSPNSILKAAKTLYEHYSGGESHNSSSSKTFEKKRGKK
Description: as §1

[13] = target: various enzymes (Homo sapiens, UniProt Q9UM73, L1196M)
Description: as §1

[14] = target: various enzymes (Homo sapiens, UniProt Q9NRP7); conditions: compound 1 uM
Description: as §1

[15] = target: various enzymes (Homo sapiens, UniProt P57078); conditions: compound 1 uM
Description: as §1

[16] = target: various enzymes (Homo sapiens, UniProt Q9UBE8); conditions: compound 1 uM
various enzymes (Homo sapiens, UniProt Q9UBE8), sequence (Q9UBE8 whole entry): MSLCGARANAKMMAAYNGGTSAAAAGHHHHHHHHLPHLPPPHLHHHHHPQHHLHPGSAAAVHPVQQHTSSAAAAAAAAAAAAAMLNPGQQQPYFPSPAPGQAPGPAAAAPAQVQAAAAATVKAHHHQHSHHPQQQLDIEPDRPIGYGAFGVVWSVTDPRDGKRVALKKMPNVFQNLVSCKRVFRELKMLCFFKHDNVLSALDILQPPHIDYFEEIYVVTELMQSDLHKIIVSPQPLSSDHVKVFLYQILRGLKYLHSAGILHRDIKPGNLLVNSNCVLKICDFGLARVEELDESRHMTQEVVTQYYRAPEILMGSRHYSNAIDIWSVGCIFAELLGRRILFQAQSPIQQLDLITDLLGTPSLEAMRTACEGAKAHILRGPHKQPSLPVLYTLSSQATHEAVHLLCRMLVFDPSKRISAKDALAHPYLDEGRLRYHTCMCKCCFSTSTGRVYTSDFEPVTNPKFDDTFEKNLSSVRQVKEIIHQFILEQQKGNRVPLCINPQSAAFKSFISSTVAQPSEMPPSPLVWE
Description: as §1

[17] = target: various enzymes (Homo sapiens, UniProt Q8IVW4); conditions: compound 1 uM
Description: as §1

[18] = target: various enzymes (Homo sapiens, UniProt P29320); conditions: compound 1 uM
various enzymes (Homo sapiens, UniProt P29320), sequence (P29320 21-983): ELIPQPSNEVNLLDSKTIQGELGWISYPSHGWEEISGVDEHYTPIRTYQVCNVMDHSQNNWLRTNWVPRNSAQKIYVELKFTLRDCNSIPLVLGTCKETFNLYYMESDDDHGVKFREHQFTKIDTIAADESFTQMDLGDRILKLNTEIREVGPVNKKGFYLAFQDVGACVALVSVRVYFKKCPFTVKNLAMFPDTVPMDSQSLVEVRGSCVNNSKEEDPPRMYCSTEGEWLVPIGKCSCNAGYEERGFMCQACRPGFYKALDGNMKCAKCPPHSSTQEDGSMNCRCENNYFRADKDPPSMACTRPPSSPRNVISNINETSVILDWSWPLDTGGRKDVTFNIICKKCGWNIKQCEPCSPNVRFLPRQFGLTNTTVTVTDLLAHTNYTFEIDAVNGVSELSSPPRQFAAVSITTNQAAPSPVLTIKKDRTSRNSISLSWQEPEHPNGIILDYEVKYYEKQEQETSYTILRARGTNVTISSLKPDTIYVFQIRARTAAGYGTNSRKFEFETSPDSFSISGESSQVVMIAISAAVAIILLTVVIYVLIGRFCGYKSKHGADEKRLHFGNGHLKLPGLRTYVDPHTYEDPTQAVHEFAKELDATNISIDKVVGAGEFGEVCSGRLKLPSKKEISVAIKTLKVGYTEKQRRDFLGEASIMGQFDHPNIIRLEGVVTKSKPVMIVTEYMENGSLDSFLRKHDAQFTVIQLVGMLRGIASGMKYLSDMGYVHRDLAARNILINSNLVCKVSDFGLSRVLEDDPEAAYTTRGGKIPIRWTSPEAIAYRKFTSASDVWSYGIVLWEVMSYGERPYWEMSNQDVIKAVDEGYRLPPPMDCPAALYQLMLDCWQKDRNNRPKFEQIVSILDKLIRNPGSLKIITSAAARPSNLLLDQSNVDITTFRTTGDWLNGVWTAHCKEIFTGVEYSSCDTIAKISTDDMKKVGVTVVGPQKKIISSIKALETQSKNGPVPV
Description: as §1

Row | Structure (SMILES) | Ambit profiling: NEK7 [1] | Ambit profiling: CAMK1D [2] | Ambit profiling: ITK [3] | Ambit profiling: CDK8 [4] | Ambit profiling: AMPK-alpha2 [5] | Ambit profiling: LCK [6] | Ambit profiling: OSR1 [7] | Ambit profiling: AURKC [8] | Ambit profiling: PIM2 [9] | Ambit profiling: MAP4K3 [10] | Ambit profiling: ASK2 [11] | Ambit profiling: TTK [12] | Ambit profiling: ALK(L1196M) ([13]; compound 1 uM) | Ambit profiling: STK36 [14] | Ambit profiling: RIPK4 [15] | Ambit profiling: NLK [16] | Ambit profiling: CDKL3 [17] | Ambit profiling: EPHA3 [18] | Ambit profiling: ALK(L1196M) [13]
1 | CC(C)N1Cc2nn(C)cc2-c2cnc3[nH]cc(c3c2)-c2cn(nc2C(F)(F)F)CCCC1=O [Compound 45, (Z)-5-isopropyl-31-methyl-13-(trifluoromethyl)-11H,21H,31H-5-aza-2(3,5)-pyrrolo[2,3-b]pyridina-1(4,1),3(4,3)-dipyrazolacyclononaphan-6-one] | 97 | 60 | 38 | 100 | 87 | 0.65 | 100 | 20 | 100 | 18 | 54 | 20 | 18 | 100 | 100 | 84 | 100 | 32 | 
2 | COc1c2c(nn1C)CN(C(C)C)C(=O)CCCn1cc(c(C(F)(F)F)n1)-c1c[nH]c3ncc-2cc13 [Compound 50, (Z)-5-isopropyl-35-methoxy-31-methyl-13-(trifluoromethyl)-11H,21H,31H-5-aza-2(3,5)-pyrrolo[2,3-b]pyridina-1(4,1),3(4,3)-dipyrazolacyclononaphan-6-one] | 68 | 38 | 46 | 67 | 57 | 1.9 | 100 | 39 | 100 | 16 | 98 | 23 |  | 100 | 85 | 84 | 80 | 45 | 12
